# Data from EP1561465A2, “Methods of use of fluoroquinolone compounds against bacteria” (LG Life Sciences, Ltd., priority 1999, dated 2001).
# Like-named read-outs stand apart in the source and are kept apart here.
# Columns and labels:
# Format in all cases: cell-based
# [1] = test system: Streptococcus pneumoniae and Haemophilus influenzae; test: MIC by broth microdilution (NCCLS), all isolates pooled
# [2] = test system: Staphylococcus aureus; test: microbe, parasite or virus in culture; conditions: for MIC90: read-out: MIC90
# [3] = test system: E. coli; test: microbe, parasite or virus in culture; conditions: Escherichia coli; for MIC50 / MIC90: E. coli (13 strains), quinolone-resistant; for MIC50: read-out: MIC50; for MIC90: read-out: MIC90
# [4] = test system: Enterococcus faecalis; test: MIC by NCCLS broth microdilution, 1100 Japanese clinical isolates 1997-1998; conditions: for MIC50 / MIC90: Enterococcus faecalis; for MIC90: read-out: MIC90
# [5] = test system: Morganella morganii; test: as above; conditions: Morganella morganii (n=40); for MIC50: read-out: MIC50; for MIC90: read-out: MIC90
# [6] = test system: Serratia marcescens; test: as above
# [7] = test system: Enterobacter spp.; test: MIC by agar dilution (NCCLS), 322 nosocomial Gram negative isolates, Athens 1998; conditions: n = 57 isolates
# [8] = test system: Streptococcus pneumoniae; test: MIC by E-test (broth microdilution for gemifloxacin), 107 pneumococcal carrier isolates, Athens 1998; conditions: for MIC Range: in µg/mL (unit assumed); for MIC50 / MIC90: Streptococcus pneumoniae; for MIC90: read-out: MIC90
# Method: Susceptibility testing was performed by agar dilution or epsilometer method (E-test), as recommended by the NCCLS. […] The susceptibility profiles of the strains were assessed using the Epsilometer method (E-test). The isolates were subdivided into two groups according to their penicillin susceptibility patterns (penicillin-susceptible and penicillin-intermediate.
# [9] = test system: Yersinia enterocolitica; test: MIC by agar dilution (NCCLS M7-A4), 288 enteropathogenic isolates, gemifloxacin and 15 other antimicrobials; conditions: Yersinia enterocolitica N= 22
# [10] = Staphylococcus aureus, Methicillin-susceptible (9)
# [11] = Staphylococcus aureus, S. aureus KU2240, mutant type Wild (wild strain)
# [12] = Staphylococcus aureus, S. aureus KU2241, mutant type NorA (efflux-mediated quinolone resistant)
# [13] = Staphylococcus aureus, S. aureus KU2242, mutant type T (DNA topoisomerase IV)
# [14] = Staphylococcus aureus, S. aureus KU2243, mutant type G+T (DNA gyrase and topoisomerase IV)
# [15] = Staphylococcus aureus, S. aureus KU2244, mutant type G (DNA gyrase)
# [16] = Staphylococcus aureus, S. aureus KU2246, mutant type T (DNA topoisomerase IV)
# [17] = E. coli KU1029, mutant type SP (spontaneous mutant in the DNA gyrase)
# [18] = E. coli KU1034, mutant type GA (DNA gyrase A)
# [19] = E. coli KU1035, mutant type GA (DNA gyrase A)
# [20] = E. coli KU1036, mutant type GB (DNA gyrase B)
# [21] = Enterococcus faecalis ciprofloxacin resistant (n=15)
# [22] = Enterococcus faecalis ciprofloxacin susceptible (n=24)
# [23] = Penicillin-intermediate S. pneumoniae (n = 24), E-test
# [24] = Penicillin-susceptible S. pneumoniae (n = 107), E-test
structure (smiles),measurement,setting,value
"N[C@@H]1[C@H]2CN(c3nc4c(cc3F)c(=O)c(C(=O)O)cn4-c3ccc(F)cc3F)C[C@@H]12 [Trovafloxacin, trovafloxacin]",MIC90,"[1]; all (380) isolates tested (235 S. pneumoniae, 145 H. influenzae)",0.12 µg/mL
same,MIC90,[1]; all isolates tested (602),0.25 µg/mL
same,MIC Range,[2]; Methicillin-resistant (38),0.031 to 16 µg/mL
same,MIC Range,[2]; Methicillin-susceptible (9),0.031 to 0.5 µg/mL
same,MIC90,"[2]; Staphylococcus aureus, Methicillin-resistant (38)",16 µg/mL
same,MIC50,[2]; [10],0.031 µg/mL
same,MIC90,[2]; [10],0.5 µg/mL
same,MIC,[2]; [11],0.063 µg/mL
same,MIC,[2]; [12],0.063 µg/mL
same,MIC,[2]; [13],0.25 µg/mL
same,MIC,[2]; [14],32 µg/mL
same,MIC,[2]; [15],0.063 µg/mL
same,MIC,[2]; [16],0.25 µg/mL
same,MIC50,[3],0.063 µg/mL
same,MIC90,[3],0.5 µg/mL
same,MIC,[3]; [17],0.063 µg/mL
same,MIC,"[3]; E. coli KU1030, mutant type SP",0.063 µg/mL
same,MIC,"[3]; E. coli KU1031, mutant type SP",0.063 µg/mL
same,MIC,"[3]; E. coli KU1032, mutant type SP",0.25 µg/mL
same,MIC,"[3]; E. coli KU1033, mutant type SP",0.031 µg/mL
same,MIC,[3]; [18],0.5 µg/mL
same,MIC,[3]; [19],0.5 µg/mL
same,MIC,[3]; [20],0.063 µg/mL
same,MIC,"[3]; E. coli KU1038, mutant type SP",0.063 µg/mL
same,MIC,"[3]; E. coli KU1039, mutant type SP",0.25 µg/mL
same,MIC,"[3]; E. coli KU1040, mutant type SP",≤ 0.008 µg/mL
same,MIC,"[3]; E. coli KU1041, mutant type SP",0.5 µg/mL
same,MIC,"[3]; E. coli KU1042, mutant type SP",0.125 µg/mL
same,MIC Range,[4]; [21],0.25 to 16 µg/mL
same,MIC Range,[4]; [22],0.25 to 0.5 µg/mL
same,MIC50,[4]; [21],4 µg/mL
same,MIC90,[4]; [21],16 µg/mL
same,MIC50,[4]; [22],0.25 µg/mL
same,MIC90,[4]; [22],0.25 µg/mL
same,MIC Range,[5],0.063 to 32 µg/mL
same,MIC50,[5],0.25 µg/mL
same,MIC90,[5],1 µg/mL
same,MIC90,[6]; Serratia marcescens (n=30),2 µg/mL
same,MIC50,"[6]; Serratia marcescens (n=30), read-out: MIC50",0.25 µg/mL
same,MIC50,"[7]; Enterobacter, read-out: MIC50",0.125 µg/mL
same,MIC90,"[7]; Enterobacter, read-out: MIC90",16 µg/mL
same,MIC Range,[7],≤0.03 to 64 µg/mL
same,MIC Range,[8]; [23],0.003-1
same,MIC Range,[8]; [24],0.008-1
same,MIC50,[8],0.125 µg/mL
same,MIC90,[8]; [23],0.38 µg/mL
same,MIC50,"[8]; Penicillin-susceptible S. pneumoniae (n = 107), E-test, read-out: MIC50",0.094 µg/mL
same,MIC90,[8]; [24],0.19 µg/mL
same,MIC,"[9]; 24 h, read-out: MIC (mg/L) Range",0.015 to 0.25 mg/L
same,MIC,[9]; read-out: MIC (mg/L) 50%,0.06 mg/L
same,MIC,[9]; read-out: MIC (mg/L) 90%,0.06 mg/L
"NC1CCN(c2nc3c(cc2F)c(=O)c(C(=O)O)cn3-c2ccc(F)cc2F)C1 (stereo not shown) [Tosufloxacin, tosufloxacin]",MIC,[2]; [11],0.063 µg/mL
same,MIC,[2]; [12],0.125 µg/mL
same,MIC,[2]; [13],0.25 µg/mL
same,MIC,[2]; [14],> 128 µg/mL
same,MIC,[2]; [15],0.125 µg/mL
same,MIC,[2]; [16],0.5 µg/mL
same,MIC50,[3],0.063 µg/mL
same,MIC90,[3],0.25 µg/mL
same,MIC,[3]; [17],0.063 µg/mL
same,MIC,"[3]; E. coli KU1030, mutant type SP",0.031 µg/mL
same,MIC,"[3]; E. coli KU1031, mutant type SP",0.031 µg/mL
same,MIC,"[3]; E. coli KU1032, mutant type SP",0.125 µg/mL
same,MIC,"[3]; E. coli KU1033, mutant type SP",0.031 µg/mL
same,MIC,[3]; [18],0.25 µg/mL
same,MIC,[3]; [19],0.25 µg/mL
same,MIC,[3]; [20],0.031 µg/mL
same,MIC,"[3]; E. coli KU1038, mutant type SP",0.063 µg/mL
same,MIC,"[3]; E. coli KU1039, mutant type SP",0.063 µg/mL
same,MIC,"[3]; E. coli KU1040, mutant type SP",≤ 0.008 µg/mL
same,MIC,"[3]; E. coli KU1041, mutant type SP",0.25 µg/mL
same,MIC,"[3]; E. coli KU1042, mutant type SP",0.063 µg/mL
same,MIC Range,[4]; [22],0.5 - 0.5 µg/ml
same,MIC50,[4]; [21],32 µg/mL
same,MIC90,[4]; [21],32 µg/mL
same,MIC50,[4]; [22],0.5 µg/mL
same,MIC90,[4]; [22],0.5 µg/mL
same,MIC Range,[5],0.032 to 16 µg/mL
same,MIC50,[5],0.063 µg/mL
same,MIC90,[5],0.25 µg/mL
same,MIC50,[6]; Serratia marcescens,0.125 µg/mL
same,MIC90,[6]; Serratia marcescens (n=30),1 µg/mL
